Consider six compounds from patent US11155542B2, “Antimicrobial compounds, their use for the treatment of mammalian infections and a new metabolic mechanism” (priority 2016, dated 2021).

Molecules are shown by their SMILES. Converted amounts (≈) assume the structure as drawn.

Broadly, the MIC is the lowest concentration found to suppress growth. The CC50 is the concentration giving 50% cytotoxicity. A low value points to harm at low concentration.

The subject of series [1] is Mtb H37Rv. The experiment in a line: Resazurin microtiter assay (REMA), MIC Mtb H37Rv. It is filed as cell-based. Conditions: Mycobacterium tuberculosis.
Series [2] concerns M. marinum. The series can be described thus: MIC M. marinum. Type of series: cell-based. Conditions: Mycobacterium marinum.
For series [3], the system named is M. vaccae 10670. The experiment in a line: MIC M. vaccae 10670. Type of series: cell-based. Conditions: Mycolicibacterium vaccae.
Series [4] can be described thus: Cytotoxicity determination (HeLa). It is filed as cell-based. Conditions: human, HeLa cells (DSM ACC 57). As for the experimental part: The test items were dissolved in DMSO (typically 10 mg/mL, less soluble compounds lower). The solutions were diluted in RPMI 1640 medium. HeLa cells (DSM ACC 57) were grown in RPMI 1640 and harvested at the logarithmic growth phase after soft trypsinization using 0.25% trypsin in phosphate buffered saline (PBS) containing 0.02% ethylenediaminetetraacetic acid (EDTA). For each experiment, approximately 10,000 cells were seeded with 0.1 mL culture medium per well of the 96-well microplates. HeLa cells were pre-incubated for 48 h prior to the addition of the test compounds (final DMSO concentration ≤0.5%), which were carefully diluted on the subconfluent monolayers. Incubation was then conducted in a humidified atmosphere at 37° C. and 5% CO2. The adherent HeLa cells were fixed by glutaraldehyde and stained with a 0.05% solution of methylene blue for 10 min. After gently washing, the stain was eluted with 0.2 mL of 0.33 N HCl in the wells. The optical densities were measured at 660 nm in a SUNRISE microplate reader (TECAN).

The format of series [5] is in vitro ADME. Conditions: 5 µg/mL. The method, then: Human: A BTZ043 solution in DMSO (5 mg/mL) was prepared and 1 μL of this solution was added to 1 mL aliquots fresh whole blood. The mixtures were shaken at 37° C. for 2 h or 16 h and centrifuged at 4° C. and 3000 rpm to yield plasma. Plasma samples (60 μL) were mixed with acetonitrile (240 μL) on ice, vortexed, treated in an ultrasonic bath (3-5 s) and centrifuged at 4° C. and 9750 rpm. The supernatants were concentrated with a nitrogen stream to a residual volume of approximately 40 μL and analyzed by HPLC and LC-HRMS.

Series [6] is described as follows: Minipig plasma samples after oral BTZ043. It is filed as in vivo, minipigs. Conditions: plasma samples after incubation at room temperature, in some samples. The method, then: In order to reveal potentially overlooked metabolites, additional metabolic studies of BTZ043 were performed that incorporated careful analysis of highly resolved HPLC chromatograms of plasma samples after different incubation times at room temperature. To ensure maximum stability of the chromatographic conditions, all solvents were carefully degassed through vacuum treatment and/or sparging with nitrogen. […] The concomitant drastic increase of the BTZ043 peak area (in some samples >100%) emphasized the significance of this transient metabolite. […] It was suspected that this metabolite could be formed through an enzymatic reduction of BTZ043 and that it is unstable towards oxygen from air.
Minipig plasma samples: Minipigs received oral doses of 360 mg/kg BTZ043. Blood was collected 2 h subsequent to administration of the compound formulation, immediately cooled on ice and centrifuged at 4° C. and 3000 rpm to yield plasma aliquots which were snap frozen and stored at −80° C. Plasma aliquots (50 μL) were mixed with acetonitrile (200 μL) on ice and under inert conditions (Don Whitley Scientific, anaerobic workstation), vortexed, treated in an ultrasonic bath (3-5 s) and centrifuged at 4° C. and 9750 rpm. The supernatants were concentrated with a nitrogen stream to a residual volume of approximately 40 μL and analyzed by HPLC and LC-HRMS.

The nature of series [7]: Blank plasma from untreated animals spiked with BTZ043. It is filed as in vitro ADME. From the text:
It was therefore reasoned, that a possible explanation of this phenomenon would involve a yet unknown metabolite that was either thermally or oxidatively unstable when exposed to air.

Series [8] in a line: Chemical stability and solubility of Meisenheimer complexes and methylated derivatives. Conditions: room temperature.
The nature of series [9]: Fresh blood assay, mice. It is filed as in vitro ADME, C57BL/6J mice. Conditions: in vitro incubation of fresh whole blood, HPLC-HRMS. As for the experimental part:
Mice: Fresh whole blood was collected from C57BL/6J mice after cervical dislocation under isoflurane anesthesia. Test item solutions were prepared in DMSO (5 mg/mL) and 0.4 μL of this solution was added to 400 μL fresh whole blood. The mixtures were incubated at 37° C. for 4 h and centrifuged at 4° C. and 3000 rpm to yield plasma. Plasma samples (50 μL) were mixed with acetonitrile (200 μL) on ice, vortexed, treated in an ultrasonic bath (3-5 s) and centrifuged at 4° C. and 9750 rpm. The supernatants were concentrated with a nitrogen stream to a residual volume of approximately 40 μL and analyzed by HPLC and LC-HRMS.

As to `C[C@H]1COC2(CCN(c3nc(=O)c4cc(C(F)(F)F)cc([N+](=O)[O-])c4s3)CC2)O1` [BTZ043, (S)-2-(2-methyl-1,4-dioxa-8-azaspiro[4.5]decan-8-yl)-8-nitro-6-(trifluoro-methyl)-4H-1,3-benzothiazin-4-one, reference compound], the MIC in series [1] is 1 ng/mL (≈ 0.00232 µM); in [2], 4 ng/mL (≈ 0.00927 µM); in [3], less than 1.2 ng/mL. Besides, the CC50 in series [4] is greater than 50000 ng/mL. The “Transformation of BTZ043 to 5b in fresh whole human blood” value in series [5] is “transformation of BTZ043 to 5b after several hours”. Further, the “Increase of the BTZ043 peak area in plasma samples over time” value in series [6] is greater than 100%. Besides, in series [7], the “Peak areas of BTZ043 in spiked blank plasma over time” value is given as “remained completely unchanged over time”.
Take `COC1=C2C=C(C(F)(F)F)CC([N+](=O)[O-])=C2SC(N2CCC3(CC2)OC[C@H](C)O3)=N1` [Compound 6a]: in series [8], the “Solubility and stability of the methylated derivatives” value is “sufficiently soluble and stable at room temperature”.
On the same count and under the same terms, the value for `COC1=C2CC(C(F)(F)F)=CC([N+](=O)[O-])=C2SC(N2CCC3(CC2)OC[C@H](C)O3)=N1` [Compound 6b] was “sufficiently soluble and stable at room temperature”.
For `Cc1c(C(F)(F)F)cc2c(=O)nc(N3CCC4(CC3)OC[C@H](C)O4)sc2c1[N+](=O)[O-]` [Example 9a, (S)-7-Methyl-2-(2-methyl-1,4-dioxa-8-azaspiro[4.5]decan-8-yl)-8-nitro-6-(trifluoromethyl)-4H-1,3-benzothiazin-4-one], the results for the MIC in [1], in [2] and in [3] were 500 ng/mL (≈ 1.12 µM), 250 ng/mL (≈ 0.561 µM) and 39 ng/mL (≈ 0.0876 µM), respectively. The compound also displayed a CC50 in [4] of 38900 ng/mL (≈ 87.3 µM). For the same compound, the “Formation of the Meisenheimer complex (reduced form) in the blood assay” value in series [9] is “formed only fairly detectable amounts of the Meisenheimer complex”.
Consider `Cc1c(C(F)(F)F)cc([N+](=O)[O-])c2sc(N3CCC4(CC3)OC[C@H](C)O4)nc(=O)c12` [Example 9b, (S)-5-Methyl-2-(2-methyl-1,4-dioxa-8-azaspiro[4.5]decan-8-yl)-8-nitro-6-(trifluoromethyl)-4H-1,3-benzothiazin-4-one], for which the MIC is 8 ng/mL (≈ 0.018 µM) in series [1], 8 ng/mL (≈ 0.018 µM) in series [2] and less than 1.2 ng/mL in [3]. In [4], this compound gave a CC50 greater than 50000 ng/mL. In addition, the “Formation of the Meisenheimer complex (reduced form) in the blood assay” value in series [9] is reported as “could only be detected in trace amounts”.
As to `Cc1c(C(F)(F)F)cc([N+](=O)[O-])c2sc(N3CCN(CC4CCCCC4)CC3)nc(=O)c12` [Example 16, 2-(4-(Cyclohexylmethyl)piperazin-1-yl)-5-methyl-8-nitro-6-(trifluoromethyl)-4H-1,3-benzothiazin-4-one], the MIC in series [1] is 0.5 ng/mL (≈ 0.00106 µM); in [2] it was 1 ng/mL (≈ 0.00213 µM); in [3], less than 1.2 ng/mL. Moreover, the 50% cytotoxic concentration (CC50) in series [4] was greater than 25000 ng/mL.
